The NIST ThermoML archive (doi:10.1021/je100819f)
± gives the expanded uncertainty stated by the source.

Conditions: Crystal; DTA

O=C1C=CC(=O)N1c1cc(F)c(Br)c(F)c1 [1-(4-bromo-3,5-difluorophenyl)-1H-pyrrole-2,5-dione]
Normal melting temperature: 197.5 ± 0.7 °C
